Converted amounts (≈) assume the structure as drawn.
What was measured:
[1] = system: P. mirabilis; assay: in vitro antibacterial activity (MIC50); format: cell-based
[2] = system: A. bumannii; assay: in vitro antibacterial activity (MIC50); format: cell-based; conditions: for Amount of Antimicrobial Agent required for Inhibition / in vitro antibacterial activity of individual antibiotic (MIC50) / MIC50: A. bumannii; for reduction of MIC50 of Rifampicin in cocktail with silver (control = 1) / reduction of MIC50 of Tobramycin in cocktail with silver (control = 1): A. baumannii
[3] = system: P. aeruginosa; assay: in vitro antibacterial activity (MIC50); format: cell-based
[4] = system: A. baumannii; assay: MIC50 for inhibition ring formation (MICfir), agar plate; format: cell-based; conditions: Acinetobacter baumannii; A.b; read-out: 50% minimum inhibitory concentrations (MIC50) needed for growth ring formation
[5] = system: S. aureus; assay: in vitro antibacterial activity (MIC50); format: cell-based; conditions: for MIC50: Staphylococcus aureus
[6] = system: P. aeruginosa; assay: MIC50 for inhibition ring formation (MICfir), agar plate; format: cell-based; conditions: Pseudomonas aeruginosa; P.a; read-out: 50% minimum inhibitory concentrations (MIC50) needed for growth ring formation
[7] = system: 4 bacterial strains (A. bumannii, P. aeruginosa, P. mirabilis and S. aureus); assay: in vitro antibacterial activity (MIC50), summary over strains; format: cell-based; conditions: against all 4 bacterial strains
[8] = system: P.m; assay: MIC50 for inhibition ring formation (MICfir), agar plate; format: cell-based; conditions: Proteus mirabilis, read-out: 50% minimum inhibitory concentrations (MIC50) needed for growth ring formation
[9] = system: S. aureus methicillin resistant strain; assay: as above; format: cell-based; conditions: Staphylococcus aureus, MRSA; read-out: 50% minimum inhibitory concentrations (MIC50) needed for growth ring formation
[10] = system: K. pneumoniae; assay: as above; format: cell-based; conditions: Klebsiella pneumoniae; K.p; read-out: 50% minimum inhibitory concentrations (MIC50) needed for growth ring formation
[11] = system: S. aureus; assay: as above; format: cell-based; conditions: Staphylococcus aureus; S.a; read-out: 50% minimum inhibitory concentrations (MIC50) needed for growth ring formation
[12] = system: A. baumannii; assay: effect of storage time on antibiotic functionality; format: physicochemical; conditions: 1 mg/ml solution stored at 37° C., day 0 to day 35
Procedure: The effect of storage time on antibiotic functionality of tobramycin and rifampicin against A. baumannii were also tested. Tobramycin and rifampicin solutions (1 mg/ml in water and DMSO, respectively) were kept at room temperature (24° C.) or 37° C. for up to 35 days, and the antimicrobial activities of the antibiotics at different time points were tested by applying the antibiotics to A. Baumannii. MIC50 were determined and compared. […] P values for tobramycin and rifampicin (from day 0 to day 35) are 0.593 and 0.442 respectively (FIG. 3)

With CN[C@H](CC(C)C)C(=O)N[C@H]1C(=O)N[C@@H](CC(N)=O)C(=O)N[C@H]2C(=O)N[C@H]3C(=O)N[C@H](C(=O)N[C@H](C(=O)O)c4cc(O)cc(O)c4-c4cc3ccc4O)[C@H](O)c3ccc(c(Cl)c3)Oc3cc2cc(c3O[C@@H]2O[C@H](CO)[C@@H](O)[C@H](O)[C@H]2O[C@H]2C[C@](C)(N)[C@H](O)[C@H](C)O2)Oc2ccc(cc2Cl)[C@H]1O [Vancomycin] the “Amount of Antimicrobial Agent required for Inhibition” value (from here on “Amount … for Inhibition”) [1] was over 1000 mg/mL, the “in vitro antibacterial activity of individual antibiotic (MIC50)” value (shortened to “in vitro antibacterial activity”) [1] was over 1000 mg/mL and the “Amount … for Inhibition” value [2] was 79.4 ± 4.1 mg/mL. The “in vitro antibacterial activity” value [2] was 79.4 ± 4.1 mg/mL, the “Amount … for Inhibition” value [3] was over 1000 mg/mL and the “in vitro antibacterial activity” value [3] was over 1000 mg/mL.

CO[C@H]1/C=C/O[C@@]2(C)Oc3c(C)c(O)c4c(O)c(c(/C=N/N5CCN(C)CC5)c(O)c4c3C2=O)NC(=O)/C(C)=C\C=C\[C@H](C)[C@H](O)[C@@H](C)[C@@H](O)[C@@H](C)[C@H](OC(C)=O)[C@@H]1C [Rifampicin] was tested, and the “Amount … for Inhibition” value [1] was 3.77 ± 0.92 mg/mL, the “in vitro antibacterial activity” value [1] was 3.77 ± 0.92 mg/mL and the MIC50 [4] was 0.045 ± 0.0026 mg/mL (≈ 54.7 µM). For the same compound, the MIC50 [5] was at most 0.001 mg/mL, the MIC50 [6] was 0.185 ± 0.0158 mg/mL (≈ 225 µM) and the MIC50 [7] was under 0.01 mg/mL. For the same compound, the “Amount … for Inhibition” value [2] was 0.085 ± 0.01 mg/mL, the MIC50 [2] was at most 0.001 mg/mL and the “in vitro antibacterial activity” value [2] was 0.085 ± 0.01 mg/mL. It also gave an MIC50 [8] of 0.026 ± 0.0035 mg/mL (≈ 31.6 µM), an MIC50 [9] of 0.02 ± 0.001 µg/mL (≈ 0.0243 µM) and an MIC50 [10] of 0.045 ± 0.0036 mg/mL (≈ 54.7 µM). For the same compound, the MIC50 [11] was 0.02 ± 0.001 µg/mL (≈ 0.0243 µM), the “Amount … for Inhibition” value [3] was 19.08 ± 6.14 mg/mL and the “in vitro antibacterial activity” value [3] was 19.08 ± 6.14 mg/mL.

With CCC[C@@H]1C[C@@H](C(=O)N[C@@H]([C@H]2O[C@H](SC)[C@H](O)[C@@H](O)[C@H]2O)[C@H](C)Cl)N(C)C1 [Clindamycin] the “Amount … for Inhibition” value [1] was 23.88 ± 8.43 mg/mL, the “in vitro antibacterial activity” value [1] was 23.88 ± 8.43 mg/mL and the “Amount … for Inhibition” value [2] was 2.72 ± 0.68 mg/mL. For the same compound, the “in vitro antibacterial activity” value [2] was 2.72 ± 0.68 mg/mL, the “Amount … for Inhibition” value [3] was over 1000 mg/mL and the “in vitro antibacterial activity” value [3] was over 1000 mg/mL.

In the case of NC[C@H]1O[C@H](O[C@H]2[C@H](O)[C@@H](O[C@H]3O[C@H](CO)[C@@H](O)[C@H](N)[C@H]3O)[C@H](N)C[C@@H]2N)[C@H](N)C[C@@H]1O [Tobramycin], the “Amount … for Inhibition” value [1] is reported as 7.2 ± 0.73 mg/mL, the “in vitro antibacterial activity” value [1] is reported as 7.2 ± 0.73 mg/mL and the MIC50 [4] is reported as 0.0071 ± 0.0005 mg/mL (≈ 15.2 µM). The MIC50 [5] was at most 0.001 mg/mL, the MIC50 [6] was 0.0056 ± 0.0002 mg/mL (≈ 12 µM) and the MIC50 [7] was under 0.01 mg/mL. For the same compound, the “Amount … for Inhibition” value [2] was 1.05 ± 0.02 mg/mL, the MIC50 [2] was at most 0.001 mg/mL and the “in vitro antibacterial activity” value [2] was 1.05 ± 0.02 mg/mL. The MIC50 [8] was 0.0031 ± 0.0002 mg/mL (≈ 6.63 µM), the MIC50 [9] was over 200 µg/mL and the MIC50 [10] was 0.00038 ± 5e-05 mg/mL (≈ 0.813 µM). The MIC50 [11] was 2.2 ± 0.16 µg/mL (≈ 4.71 µM), the “change of MIC50 on storage (antibiotic functionality)” value [12] was “no significantly change” and the “Amount … for Inhibition” value [3] was 0.44 ± 0.12 mg/mL. The “in vitro antibacterial activity” value [3] was 0.44 ± 0.12 mg/mL.

For [Ag+] [Silver Ion], the “Amount … for Inhibition” value [1] was 4.56 ± 1.49 mg/mL, the “reduction of MIC50 of Rifampicin in cocktail with silver (control = 1)” value (shortened to “reduction of MIC50 of Rifampicin”) ([1]; Silver Ion at Mic 12.5) was 0.74 fold and the “reduction of MIC50 of Tobramycin in cocktail with silver (control = 1)” value (shortened to “reduction of MIC50 of Tobramycin”) ([1]; Silver Ion at Mic 12.5) was 0.74 fold. For the same compound, the “reduction of MIC50 of Rifampicin” value ([1]; Silver Ion at Mic 25) was 2.4 fold, the “reduction of MIC50 of Tobramycin” value ([1]; Silver Ion at Mic 25) was 2.5 fold and the “reduction of MIC50 of Rifampicin” value ([1]; Silver Ion at Mic 50) was 6.3 fold. For the same compound, the “reduction of MIC50 of Tobramycin” value ([1]; Silver Ion at Mic 50) was 6.5 fold, the “reduction of MIC50 of Rifampicin” value ([5]; Silver Ion at Mic 12.5) was 1 fold and the “reduction of MIC50 of Tobramycin” value ([5]; Silver Ion at Mic 12.5) was 1.13 fold. The “reduction of MIC50 of Rifampicin” value ([5]; Silver Ion at Mic 25) was 9.3 fold, the “reduction of MIC50 of Tobramycin” value ([5]; Silver Ion at Mic 25) was 9.3 fold and the “reduction of MIC50 of Rifampicin” value ([5]; Silver Ion at Mic 50) was 21 fold. The “reduction of MIC50 of Tobramycin” value ([5]; Silver Ion at Mic 50) was 21 fold, the “Amount … for Inhibition” value [2] was 1.52 ± 0.73 mg/mL and the “reduction of MIC50 of Rifampicin” value ([2]; Silver Ion at Mic 12.5) was 1.73 fold. For the same compound, the “reduction of MIC50 of Tobramycin” value ([2]; Silver Ion at Mic 12.5) was 2 fold, the “reduction of MIC50 of Rifampicin” value ([2]; Silver Ion at Mic 25) was 3.6 fold and the “reduction of MIC50 of Tobramycin” value ([2]; Silver Ion at Mic 25) was 4.2 fold. For the same compound, the “reduction of MIC50 of Rifampicin” value ([2]; Silver Ion at Mic 50) was 9 fold, the “Amount … for Inhibition” value [3] was 5.34 ± 3.07 mg/mL and the “reduction of MIC50 of Rifampicin” value ([3]; Silver Ion at Mic 12.5) was 1.6 fold. The “reduction of MIC50 of Tobramycin” value ([3]; Silver Ion at Mic 12.5) was 1.6 fold, the “reduction of MIC50 of Rifampicin” value ([3]; Silver Ion at Mic 25) was 4.1 fold and the “reduction of MIC50 of Tobramycin” value ([3]; Silver Ion at Mic 25) was 4.1 fold. For the same compound, the “reduction of MIC50 of Rifampicin” value ([3]; Silver Ion at Mic 50) was 10.4 fold and the “reduction of MIC50 of Tobramycin” value ([3]; Silver Ion at Mic 50) was 10.4 fold.

In the case of C[C@@H](O)[C@H]1C(=O)N2C(C(=O)O)=C(SCCN=CN)C[C@H]12 [Imipenem], the “Amount … for Inhibition” value [1] is reported as 1.02 ± 0.01 mg/mL, the “in vitro antibacterial activity” value [1] is reported as 1.02 ± 0.01 mg/mL and the MIC50 [7] is reported as under 0.01 mg/mL. The “Amount … for Inhibition” value [2] was 10.25 ± 2.33 mg/mL, the “in vitro antibacterial activity” value [2] was 10.25 ± 2.33 mg/mL and the “Amount … for Inhibition” value [3] was 0.91 ± 0.56 mg/mL. For the same compound, the “in vitro antibacterial activity” value [3] was 0.91 ± 0.56 mg/mL.

Reference: patent US20130089599A1, “NANO-ENCAPSULATED THERAPEUTICS FOR CONTROLLED TREATMENT OF INFECTION AND OTHER DISEASES” (The United States of America as Represented by the …, priority 2011, published 2013)
